These results are taken from paper PMC7058083, “Structural basis of ligand binding modes at the human formyl peptide receptor 2” (Nature Communications, 2020).

Holding throughout (assay): Saturation binding of WK(FITC)YMVm, flow cytometry on HEK293F cells
For assay [1], the target named is T1, wild-type (WT) and mutant FPR2 (Homo sapiens, UniProt P25090, L198A).
T1 construct: expressed in transfected cells; host or cells: HEK293F
The settings on record: FPR2 L198A. As to the method:
(§1) Flag-tagged wild-type and mutant FPR2s were cloned into the pTT5 vector and expressed in HEK293F cells. The cells were harvested, and washed with Hanks’ Balanced Salt Solution (HBSS) buffer supplemented with 0.5% bovine serum albumin and 20 mM HEPES, pH 7.4. The cells were then resuspended in the same buffer to the final concentration of 1 × 10^6 cells per ml. The cell-surface expression was measured as mentioned above. […] Mean fluorescent intensity of each well was then read by a FCM (flow cytometry) reader (Millipore). […] For competitive binding of fMLFK, cells were plated in 96-well plates (100,000 cells per well), and incubated with WK(FITC)YMVm at 4 °C for 1 h. The following concentrations of WK(FITC)YMVm were used: 10 nM (wild type, L81^2.60F, E89G, and V105^3.32A), 30 nM (D281^7.32G), 40 nM (H102^3.29F, V160^4.60A, L268^ECL3A, N285^7.36A, and F292^7.43A), and 100 nM (L164^4.64A and T177A). Then increasing concentrations of fMLFK (100 nM–1 mM) were added, and incubated for another 1 h on ice. Mean fluorescent intensity values were measured by flow cytometry. Data were analyzed using Prism 7.0.

Assay [2] concerns the target T2, wild-type (WT) and mutant FPR2 (Homo sapiens, UniProt P25090, D281G).
T2 construct: expressed in transfected cells; host or cells: HEK293F
T2 sequence (P25090 1-351 D281G): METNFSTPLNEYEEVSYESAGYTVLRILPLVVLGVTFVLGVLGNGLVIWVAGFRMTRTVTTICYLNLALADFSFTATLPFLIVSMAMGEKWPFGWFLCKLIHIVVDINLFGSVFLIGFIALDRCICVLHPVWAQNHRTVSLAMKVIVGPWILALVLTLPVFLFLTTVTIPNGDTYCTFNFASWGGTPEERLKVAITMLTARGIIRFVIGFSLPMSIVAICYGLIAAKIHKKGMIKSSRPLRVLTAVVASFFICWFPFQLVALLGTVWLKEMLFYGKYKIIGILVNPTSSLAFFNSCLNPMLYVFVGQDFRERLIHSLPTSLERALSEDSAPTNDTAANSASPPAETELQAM
The note with it: FPR2 D281G. As to the method: as §1

Assay [3] deals with T3, wild-type (WT) and mutant FPR2 (Homo sapiens, UniProt P25090, N285A).
T3 construct: expressed in transfected cells; host or cells: HEK293F
T3 sequence (P25090 1-351 N285A): T2 sequence (P25090 1-351 D281G) with G281D, N285A
The note with it: FPR2 N285A. As to the method:
as §1

For assay [4], the target named is T4, wild-type (WT) and mutant FPR2 (Homo sapiens, UniProt P25090, L164A).
T4 construct: expressed in transfected cells; host or cells: HEK293F
T4 sequence (P25090 1-351 L164A): T2 sequence (P25090 1-351 D281G) with L164A, G281D
The settings on record: FPR2 L164A. As to the method: as §1

Assay [5] deals with T5, wild-type (WT) and mutant FPR2 (Homo sapiens, UniProt P25090, V105A).
T5 construct: expressed in transfected cells; host or cells: HEK293F
T5 sequence (P25090 1-351 V105A): T2 sequence (P25090 1-351 D281G) with V105A, G281D
The settings on record: FPR2 V105A. As to the method: as §1

In assay [6] the target is T6, wild-type (WT) and mutant FPR2 (Homo sapiens, UniProt P25090, V160A).
T6 construct: expressed in transfected cells; host or cells: HEK293F
T6 sequence (P25090 1-351 V160A): T2 sequence (P25090 1-351 D281G) with V160A, G281D
The settings on record: FPR2 V160A. As to the method:
as §1

The structures appear in SMILES notation. Residue numbers refer to the chain shown, from its start.

As a reminder, the Kd is the free concentration of one partner at which half of the binding sites on the other are occupied at equilibrium, for simple one-to-one binding. Lower therefore signals tighter binding.

T1 sequence (P25090 whole entry L198A): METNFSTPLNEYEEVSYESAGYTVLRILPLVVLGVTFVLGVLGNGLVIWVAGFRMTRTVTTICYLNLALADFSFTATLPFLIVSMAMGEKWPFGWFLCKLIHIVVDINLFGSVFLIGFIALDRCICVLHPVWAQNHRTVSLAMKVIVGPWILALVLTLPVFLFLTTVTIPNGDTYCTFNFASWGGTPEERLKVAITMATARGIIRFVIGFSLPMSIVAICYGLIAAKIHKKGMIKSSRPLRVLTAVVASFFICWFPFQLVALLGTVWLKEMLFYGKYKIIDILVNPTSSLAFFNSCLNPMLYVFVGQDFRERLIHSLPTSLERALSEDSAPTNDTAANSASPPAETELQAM

Regarding `CSCC[C@H](NC(=O)[C@H](Cc1ccc(O)cc1)NC(=O)[C@H](CCCCNC(=S)Nc1ccc2c(c1)C(=O)OC21c2ccc(O)cc2Oc2cc(O)ccc21)NC(=O)[C@@H](N)Cc1c[nH]c2ccccc12)C(=O)N[C@H](C(=O)N[C@H](CCSC)C(N)=O)C(C)C` [WK(FITC)YMVm], the “Span (% of WT), saturation binding” value in assay [1] is recorded as 84 ± 14 % of WT; in assay [2], 39 ± 3 % of WT; in assay [3] it was 85 ± 13 % of WT; in assay [4] it was 85 ± 13 % of WT; in assay [5], 68 ± 15 % of WT; in assay [6] it was 30 ± 4 % of WT. In addition, the Kd in assay [1] (mean ± s.e.m., n=3, SEM) is 41.5 ± 10.0 nM; in assay [2] (mean ± s.e.m., n=4, SEM) it was 34.3 ± 14.1 nM; in assay [3] (mean ± s.e.m., n=4, SEM) it was 43.3 ± 15.3 nM; in assay [4] (mean ± s.e.m., n=3, SEM), 92.2 ± 25.1 nM; in assay [5] (mean ± s.e.m., n=4, SEM) it was 25.7 ± 7.5 nM; in assay [6] (mean ± s.e.m., n=4, SEM) it was 36.1 ± 18.1 nM.
